Results reported in the supplement of paper PMC10307832.

Experiments:
Experiment in all cases: relative viability (nuclei count vs DMSO), 5 days (fraction); higher = more cells survive
KN-93 + Linsitinib = compound: CN(C/C=C/C1=CC=C(C=C1)Cl)CC2=CC=CC=C2N(CCO)S(=O)(=O)C3=CC=C(C=C3)OC [KN-93] + C[C@]1(O)C[C@@H](c2nc(-c3ccc4ccc(-c5ccccc5)nc4c3)c3c(N)nccn32)C1 [Linsitinib] (partner 1 µM)
Procedure, shortened: (§1)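 Relative viability is defined as nuclei in treated wells over nuclei in vehicle wells. Duplicate plates were run and medians reported. Lung cancer cell lines in 1536-well plates were dosed by pin tool one day after seeding, with one drug or with a fixed anchor-drug dose plus five library-drug doses (not always all listed) in √10 steps, and nuclei were counted after 5 days.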

KN-93 + Dasatinib = compound: CN(C/C=C/C1=CC=C(C=C1)Cl)CC2=CC=CC=C2N(CCO)S(=O)(=O)C3=CC=C(C=C3)OC [KN-93] + Cc1nc(Nc2ncc(C(=O)Nc3c(C)cccc3Cl)s2)cc(N2CCN(CCO)CC2)n1 [Dasatinib] (partner 0.075 µM)
Procedure, shortened: as §1

KN-93 + Vorinostat = compound: CN(C/C=C/C1=CC=C(C=C1)Cl)CC2=CC=CC=C2N(CCO)S(=O)(=O)C3=CC=C(C=C3)OC [KN-93] + O=C(CCCCCCC(=O)Nc1ccccc1)NO [Vorinostat] (partner 1 µM)
Procedure, shortened: as §1

KN-93 + Olaparib = compound: CN(C/C=C/C1=CC=C(C=C1)Cl)CC2=CC=CC=C2N(CCO)S(=O)(=O)C3=CC=C(C=C3)OC [KN-93] + O=C(c1cc(Cc2n[nH]c(=O)c3ccccc23)ccc1F)N1CCN(C(=O)C2CC2)CC1 [Olaparib] (partner 8 µM)
Procedure, shortened: as §1

KN-93 + Tozasertib = compound: CN(C/C=C/C1=CC=C(C=C1)Cl)CC2=CC=CC=C2N(CCO)S(=O)(=O)C3=CC=C(C=C3)OC [KN-93] + Cc1cc(Nc2cc(N3CCN(C)CC3)nc(Sc3ccc(NC(=O)C4CC4)cc3)n2)n[nH]1 [Tozasertib] (partner 0.1 µM)
Procedure, shortened: as §1

| Cell Line | relative viability (KN-93 + Linsitinib; first compound 0.08 µM) | relative viability (KN-93 + Linsitinib; first compound 0.253 µM) | relative viability (KN-93 + Linsitinib; first compound 2.53 µM) | relative viability (KN-93 + Linsitinib; first compound 8 µM) | relative viability (KN-93 + Dasatinib; first compound 0.08 µM) | relative viability (KN-93 + Dasatinib; first compound 0.253 µM) | relative viability (KN-93 + Dasatinib; first compound 2.53 µM) | relative viability (KN-93 + Dasatinib; first compound 8 µM) | relative viability (KN-93 + Vorinostat; first compound 0.08 µM) | relative viability (KN-93 + Vorinostat; first compound 0.253 µM) | relative viability (KN-93 + Vorinostat; first compound 2.53 µM) | relative viability (KN-93 + Vorinostat; first compound 8 µM) | relative viability (KN-93 + Olaparib; first compound 0.08 µM) | relative viability (KN-93 + Olaparib; first compound 0.253 µM) | relative viability (KN-93 + Olaparib; first compound 2.53 µM) | relative viability (KN-93 + Olaparib; first compound 8 µM) | relative viability (KN-93 + Tozasertib; first compound 0.08 µM) | relative viability (KN-93 + Tozasertib; first compound 0.253 µM) | relative viability (KN-93 + Tozasertib; first compound 2.53 µM) | relative viability (KN-93 + Tozasertib; first compound 8 µM) |
| --- | --- | --- | --- | --- | --- | --- | --- | --- | --- | --- | --- | --- | --- | --- | --- | --- | --- | --- | --- | --- |
| NCI-H1355 | 0.732 | 0.769 | 0.805 | 0.699 | 0.588 | 0.551 | 0.695 | 0.503 | 0.685 | 0.516 | 0.739 | 0.578 | 0.628 | 0.67 | 0.766 | 0.477 | 0.51 | 0.451 | 0.481 | 0.31 |
| NCI-H1395 | 1.66 | 1.13 | 1.07 | 0.427 | 0.428 | 0.402 | 0.708 | 0.31 | 0.844 | 0.721 | 0.559 | 0.432 | 0.452 | 0.48 | 0.424 | 0.419 | 0.733 | 0.671 | 0.8 | 0.476 |
| NCI-H1437 | 0.879 | 1.41 | 1.04 | 0.487 | 0.457 | 0.44 | 0.374 | 0.153 | 0.608 | 0.854 | 0.529 | 0.324 | 0.626 | 0.683 | 0.564 | 0.456 | 0.37 | 0.433 | 0.383 | 0.264 |
| NCI-H1651 | 0.816 | 1.33 | 1.11 | 0.622 | 0.491 | 0.461 | 0.626 | 0.246 | 0.517 | 0.607 | 0.601 | 0.528 | 0.203 | 0.178 | 0.199 | 0.179 | 0.647 | 0.627 | 0.906 | 0.509 |
| NCI-H1666 | 0.837 | 0.672 | 1.11 | 0.588 | 0.842 | 0.924 | 0.889 | 0.645 | 1.07 | 1.1 | 1.04 | 1.06 | 0.726 | 0.716 | 0.702 | 0.762 | 0.599 | 0.662 | 0.57 | 0.454 |
| NCI-H1734 | 0.855 | 0.949 | 1.03 | 0.734 | 0.478 | 0.544 | 0.577 | 0.358 | 0.808 | 0.837 | 0.944 | 0.576 | 0.496 | 0.677 | 0.611 | 0.518 | 0.254 | 0.27 | 0.264 | 0.215 |
| NCI-H1755 | 1.01 | 1.05 | 1.05 | 0.837 | 0.392 | 0.407 | 0.384 | 0.255 | 0.844 | 0.835 | 0.856 | 0.511 | 0.806 | 0.804 | 0.909 | 0.827 | 0.625 | 0.604 | 0.584 | 0.468 |
| NCI-H1793 |  | 1.18 | 0.925 | 0.673 | 0.406 | 0.374 | 0.407 | 0.169 | 0.882 | 0.565 | 0.89 | 0.249 | 0.74 | 0.83 | 0.783 | 0.382 | 0.305 | 0.23 | 0.315 | 0.258 |
| NCI-H1915 | 1.03 | 1.16 | 1.12 | 1.03 | 0.354 | 0.343 | 0.305 | 0.225 | 0.496 | 0.607 | 0.608 | 0.491 | 0.248 | 0.264 | 0.276 | 0.255 | 0.388 | 0.446 | 0.413 | 0.308 |
| NCI-H1944 | 1.29 | 1.21 | 1.11 | 1.02 | 0.235 | 0.22 | 0.213 | 0.154 | 0.502 | 0.627 | 0.522 | 0.249 | 0.356 | 0.378 | 0.401 | 0.334 | 0.269 | 0.221 | 0.257 | 0.218 |
| NCI-H1975 | 0.789 | 0.943 | 0.992 | 0.546 | 0.339 | 0.336 | 0.351 | 0.224 | 0.614 | 0.812 | 0.728 | 0.452 | 0.534 | 0.839 | 0.826 | 0.456 | 0.702 | 0.849 | 0.676 | 0.146 |
| NCI-H1993 | 0.728 | 0.633 | 0.837 | 0.655 | 0.518 | 0.547 | 0.55 | 0.47 | 0.659 | 0.711 | 0.742 | 0.702 | 0.915 | 0.947 | 1.14 | 0.771 | 0.563 | 0.552 | 0.593 | 0.519 |
| NCI-H2009 | 1.16 | 1.24 | 1.17 | 0.94 | 0.326 | 0.29 | 0.236 | 0.159 | 0.716 | 0.679 | 0.637 | 0.447 | 0.683 | 0.815 | 0.656 | 0.528 | 0.689 | 0.764 | 0.692 | 0.493 |
| NCI-H2023 | 0.613 | 0.669 | 0.657 | 0.532 | 0.494 | 0.472 | 0.647 | 0.244 | 0.636 | 0.67 | 0.763 | 0.551 | 0.454 | 0.542 | 0.606 | 0.324 | 0.363 | 0.337 | 0.483 | 0.178 |
| NCI-H2085 | 0.782 | 0.967 | 0.929 | 0.633 | 0.237 | 0.254 | 0.231 | 0.268 | 0.791 | 0.747 | 0.747 | 0.578 | 0.741 | 0.735 | 0.776 | 0.6 | 0.667 | 0.662 | 0.873 | 0.369 |
